Measured values taken from patent US8969333B2, “Therapeutic compositions and methods” (The Penn State Research Foundation, priority 2010, dated 2015).

How the values were obtained:
p53 and its target genes [1] = assay: RT-qPCR of p53 and its target gene mRNA in liver and spleen of treated nude mice; format: in vivo, mouse; conditions: YW3-56 10 mg/kg, 3 months
Description: (§1) RNA was extracted using RNeasy Mini Kit (Qiagen) per manufacturer's instructions. 1 μg RNA was reverse transcribed into cDNA using qScript cDNA SuperMix (Quanta Biosciences) per manufacturer's instructions. Quantitative PCR was performed using SYBR Green SuperMix (Quanta Biosciences) in StepOnePlus Real-Time PCR System (Applied Biosystems). FIG. 10 is a graph showing p53 and its target gene expression induced in S180 cells by YW3-56 in a concentration dependent manner.
Expression of p53 and its target genes in mouse liver and spleen after YW3-56 injection at 10 mg/kg body weight once every two days for 3 months.
(§2) FIGS. 11a and 11b show results of the effect of long term YW3-56 treatment in mice. A pair of nude mice is mock injected or injected with YW3-56 for three months. RT-qPCR analyses of p53 and its target gene mRNA levels in control and YW3-56 treated mice. […] However, these changes are at low levels and no clear change in liver weight and morphology is observed.

LC3 = assay: Western blot of LC3 cleavage (autophagy); format: cell-based, human; conditions: U2OS cells, concentration-dependent
Description: YW3-56 induces cell death by autophagy, a cell death process in which cellular proteins and organelles are degraded by fusion with lysosomes. Cleavage of LC3-I to generate a fast migrating isoform LC3-II is a characteristic autophagy event. LC3 cleavage is induced after YW3-56 treatment in a concentration-dependent manner as shown in the Western blot in FIG. 6. Western blot and immunostaining was performed essentially as described in Li, P. et al., Oncogene 29 (21), 3153-3162 (2010). Antibodies used in Western blot were anti-p53 (Sigma), anti-PAD4, anti-p21 (Sigma), anti-PUMA (Calbiochem), anti-SESN2 (Abeam), anti-p70S6K (Cell Signaling), anti-p70S6K-[…] (Cell Signaling), anti-LC3 (Cell Signaling) and anti-β-actin (Sigma) at appropriate dilutions. Anti-LC3B antibody (Cell Signaling) was used for immunostaining. DNA was stained by the DNA dye Hoechst.

[2] = Three-month YW3-56 treatment of nude mice: body and vital organ size; format: in vivo, mouse; conditions: 10 mg/kg, three months
Description: as §2
A three-month YW3-56 treatment including daily injection of YW3-56 at 10 mg/kg body weight in a pair of nude mice is performed and the size of mouse body and vital organs is not altered after YW3-56 treatment as shown in FIG. 13.

S180 cells = assay: MTT assay of S180 cell growth inhibition; format: cell-based; conditions: Mus musculus, S-180
Description: Cells were treated with individual compounds at different concentrations for 72 hr in 24-well plates. MTT reagent was added to a final concentration of 0.5 mg/ml and further incubated for 4 hr. The yellow-colored MTT was reduced to insoluble purple-colored Formazan in living cells. Culture medium was removed and DMSO was added to dissolve Formazan into solution. The absorbance of the solution was then measured at 570 nm using a Thermo BioMate™ 3 spectrophotometer.

p53 and its target genes [3] = assay: RT-qPCR of p53 and its target genes in S180 cells; format: cell-based, mouse; conditions: concentration dependent
Description: as §1

S180 tumor = assay: Sarcoma S180 cell-derived mouse tumor model; format: in vivo; conditions: YW3-56 10 mg/kg i.p. daily for 1 week
Source text: A well-established sarcoma S180 cell-derived mouse tumor model is used in this example to determine the effects of PAD4 inhibitors of the present invention on tumor growth in mice.
S180 ascites tumor cells were used to form solid tumors after subcutaneous injection essentially as described in Wang, W. et al., Mol. Biosyst., 2011, 7:766-772. In brief, for initiation of subcutaneous tumors, the cells were obtained as an ascitic form from the tumor-bearing mice, which were serially transplanted once per week. Subcutaneous tumors were implanted by injecting 0.2 ml of 0.9% saline containing 1×10^7 viable tumor cells under the skin on the right armpit. 24 hr after implantation, male ICR mice were randomly divided into experimental groups. The mice in the positive control group were given a daily i.p injection of 2 mg/kg of doxorubicin in 0.2 ml of 0.9% saline for 7 consecutive days. The mice in the negative control group were given a daily i.p injection of 0.2 ml of 0.9% saline for 7 consecutive days. The mice in the treatment groups were given a daily i.p injection of YW3-56 (10 mg/kg), SAHA (5 mg/kg), or a combination of YW3-56 (5 mg/kg) and SAHA (2.5 mg/kg) for 7 consecutive days. The weights of the mice were recorded every day. 24 hr after the last administration, all mice were weighed, euthanized and immediately dissected to obtain and weigh the tumor and vital organs.

[4] = system: Sesn2 promoter (+733 position); assay: ChIP analysis at the sestrin2 promoter in U2OS cells; format: cell-based, human; conditions: 8 μM, 8 hr
Description: Chromatin immunoprecipitation experiments are performed to test if p53 and histone Arg modifications directly regulate Sesn2 gene promoter. ChIP experiments were carried out essentially as described in Li, P. et al., Mol. Cell Biol., 28 (15), 4745-4758 (2008). Antibodies used in ChIP were: anti-p53 (Sigma), anti-PAD4, anti-H3Cit (Abeam), anti-H3R17Me (Abeam). Multiple pairs of primers spanning different regions of Sesn2 are designed to identify a p53 binding site at the Sesn2 gene. p53 binding is relatively […] at the +733 position in untreated U2OS cells, while its binding to this site is dramatically elevated after DNA damage induced by UV irradiation. After 8 hr YW3-56 treatment, p53 binding at the +733 position of Sesn2 is increased >4-fold with a concomitant increase of histone H3 Arg17 methylation (H3R17Me) (FIG. 14G, upper panel). In contrast, after YW3-56 treatment, a decrease in PAD4 binding and histone H3 citrullination (H3Cit) at the +733 position is consistently detected. ChIP results support a model in which p53 associates with while PAD4 dissociates from the Sesn2 promoter after YW3-56 treatment, allowing a decrease in H3Cit and an increase in H3R17Me to facilitate Sesn2 expression.
FIG. 14G, ChIP analyses of p53 and PAD4 association as well as histone H3R17Me and H3Cit modifications at the sestrin2 promoter before and after YW3-56 treatment at 8 μM for 8 hr. […]

With `CN(C)c1ccc2cc(C(=O)N[C@@H](CCCNC(=N)CCl)C(=O)NCc3ccccc3)ccc2c1` [YW3-56] the “OKL38 mRNA change in liver” value (p53 and its target genes [1]; decrease) was roughly 2 fold, the “PUMA mRNA change in liver” value (p53 and its target genes [1]; decrease) was roughly 2 fold and the “p21 mRNA change in liver” value (p53 and its target genes [1]; increase) was roughly 2 fold. For the same compound, the “p53 mRNA change in liver” value (p53 and its target genes [1]; increase) was roughly 2 fold, the “changes in gene expression in spleen” value (p53 and its target genes [1]; 2-fold expression change as cut off) was “not detected” and the LC3 cleavage (LC3) was “induced”. For the same compound, the “size of mouse body and vital organs” value [2] was “not altered”, the IC50 (S180 cells) was 10 to 15 µM and the “expression of p53 and its target genes including SESN1 and SESN2” value (p53 and its target genes [3]) was “induced the expression”. For the same compound, the “growth of S180 tumor relative to control group” value (S180 tumor) was roughly 51.5%, the “PAD4 binding and histone H3 citrullination (H3Cit) at the +733 position” value [4] was “decrease” and the “p53 binding at the +733 position of Sesn2, increase” value [4] was greater than 4 fold.
